Source: US5397781A, “Pyrimidine derivatives” (Mochida Pharmaceutical Company, Limited, priority 1992, dated 1995)
Like-named read-outs stand apart in the source and are kept apart here. One block for each molecule: values may come before it.

How the values were obtained:
[1] = target: T1, ACAT (Rattus norvegicus, UniProt Q7TQM4); assay: Inhibitory effect on microsomal ACAT activity in rat liver; assay type: biochemical; settings: rat liver microsomes; read-out: IC50 (50% inhibition of cholesterol esterification)
T1 construct: Liver microsomes as an enzyme sample of ACAT were prepared from overnight-fasted male rats; from tissue; host or cells: liver of overnight-fasted male rats, 6 weeks old; microsomes
T1 sequence (Q7TQM4 1-524): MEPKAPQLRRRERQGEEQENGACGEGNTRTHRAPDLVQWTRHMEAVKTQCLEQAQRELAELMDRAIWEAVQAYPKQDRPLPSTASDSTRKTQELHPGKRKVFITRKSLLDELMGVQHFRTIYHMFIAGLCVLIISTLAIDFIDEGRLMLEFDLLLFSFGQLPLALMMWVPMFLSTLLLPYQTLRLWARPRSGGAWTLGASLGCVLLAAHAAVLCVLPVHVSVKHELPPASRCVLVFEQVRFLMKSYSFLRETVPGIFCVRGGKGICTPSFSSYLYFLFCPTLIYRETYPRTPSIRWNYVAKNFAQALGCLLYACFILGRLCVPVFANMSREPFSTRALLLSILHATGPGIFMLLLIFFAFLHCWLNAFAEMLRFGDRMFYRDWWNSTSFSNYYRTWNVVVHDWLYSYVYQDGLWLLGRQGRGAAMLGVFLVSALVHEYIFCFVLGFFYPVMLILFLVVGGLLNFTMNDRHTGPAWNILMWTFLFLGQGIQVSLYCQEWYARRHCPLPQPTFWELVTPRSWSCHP

[2] = tested on: macrophages; assay: Inhibitory effect on cholesteryl ester accumulation in macrophages; assay type: cell-based, mouse (ddy-family male mice); settings: Macrophage, read-out: Inhibition activity on cholesteryl ester accumulation (IC50 grade)
Protocol: Inhibitory effect on cholesteryl ester accumulation in macrophages.
Namely resident peritoneal cells suspended in phosphate-buffered saline (PBS) were plated in plastic Petri dishes (35 mm×10 mm) at a density of 2×10^6 cells. The adherent macrophages were cultured overnight at 37° C. in Dalbecco's modified Eagle medium (DME) containing 10% fetal bovine serum (FCS) under humidified 5% CO2. […] After discarding the medium, each macrophage monolayer was washed with PBS and lipids were extracted with hexane/isopropyl alcohol (3:2). Cholesteryl esters in the extract were separated by thin-layer chromatography and the radioactivity was measured by liquid scintillation counter.

[3] = tested on: serum total cholesterol; assay: Hypocholesterolemic effect on cholesterol feeding rats; assay type: in vivo, male Wistar rats; settings: Rattus norvegicus, oral, high cholesterol diet rats, read-out: % reduction of serum total cholesterol; for inhibition in vivo at 10 mg/kg: 10 mg/kg/day; for inhibition in vivo at 30 mg/kg: 30 mg/kg/day
Protocol: Hypocholesterolemic effect on cholesterol feeding rats. Male Wistar rats aged 7 weeks old were fed a diet (CE®) supplemented with 2%(w/w) cholesterol, 0.5%(w/w) sodium cholate, 10%(w/w) lard, 0.2%(w/w) propylthiouracyl and 5%(w/w) sucrose, for 3 days. Following 3 days, the compounds of the present invention were administered orally, and the animals were maintained with the high cholesterol diet. On the next day of final drug administration, blood was drown and serum total cholesterol-levels were measured enzymatically by autoanalyzer. CL277082 was used as a reference compound.

[4] = tested on: male Wistar rats; assay: Acute toxicity; assay type: in vivo; settings: single oral dose 1 g/kg, 7 days observation
Description: The pyrimidine derivatives of the present invention were examined for acute toxicity by using male Wistar rats fasted over night aged 7 weeks old.

[5] = mouse peritoneal macrophages, β-VLDL, [3H]oleic acid, 3 hrs

Compound: CCCCCCN(CCCC(=O)Nc1c(SC)nc(C)nc1N(CC)CC)c1ccccc1 [Example 225, N-[4-(N,N-diethylamino)-2-methyl-6-methylthiopyrimidin-5-yl]-4-(N-hexyl-N-phenylamino)butanamide]
IC50 [1]: 19 nM | inhibition in vivo at 10 mg/kg [3]: 64% | IC50 [2, 5]: 10 to 100 nM

Compound: CCCCCCN(CCCC(=O)Nc1c(SC(C)C)nc(C)nc1N(CC)CC)c1ccccc1 [Example 262, N-[4-(N,N-dietylamino)-6-isopropylthio-2-methylpyrimidin-5-yl]-4-(N-hexyl-N-phenylamino)butanamide]
inhibition in vivo at 10 mg/kg [3]: 53% | lethal incident (acute toxicity) [4]: no lethal incident was observed

Compound: CCCCCCCN(Cc1ccccc1)c1nc(C)nc(SC)c1NC(=O)CCCCN(CCC)c1ccccc1 [Example 249, N-[4-(N-benzyl-N-heptylamino)-2-methyl-6-methylthiopyrimidin-5-yl]-5-(N-phenyl-N-propylamino)pentanamide]
IC50 [1]: 160 nM | IC50 [2, 5]: 100 to 1000 nM

Compound: CCCCCCCN(Cc1ccccc1)c1nc(C)nc(SC)c1NC(=O)CCCN(CCC)c1ccccc1 [Example 223, N-[4-(N-benzyl-N-heptylamino)-2-methyl-6-methylthiopyrimidin-5-yl]-4-(N-phenyl-N-propylamino)butanamide]
IC50 [1]: 64 nM | inhibition in vivo at 10 mg/kg [3]: 70% | IC50 [2, 5]: 10 to 100 nM

Compound: CCCCN(CCCC)c1nc(C)nc(SC)c1NC(=O)CCCN(CCC)c1ccccc1 [Example 221, N-[4-(N,N-dibutylamino)-2-methyl-6-methylthiopyrimidin-5-yl]-4-(N-phenyl-N-propylamino)butanamide]
IC50 [1]: 29 nM | IC50 [2, 5]: 10 to 100 nM

Compound: CCCCCCN(CCCC(=O)Nc1c(SC)ncnc1N(CC)CC)c1ccccc1 [Example 232, N-[4-(N,N-diethylamino)-6-methylthiopyrimidin-5-yl]-4-(N-hexyl-N-phenylamino)butanamide]
inhibition in vivo at 10 mg/kg [3]: 65% | lethal incident (acute toxicity) [4]: no lethal incident was observed

Compound: CCCCCCCN(Cc1ccc(CC(C)(C)C)cc1)C(=O)Nc1ccc(F)cc1F [CL277082, (N'-2,4-difluorophenyl)-N-[[4-(2,2-dimethylpropyl)phenyl]methyl]-N-heptylurea, reference compound]
inhibition in vivo at 30 mg/kg [3]: 52% | IC50 ([2]; Mus musculus, 3 h): 1000 to 10000 nM

Compound: CCCCCCN(CCCC(=O)Nc1c(SC)nc(C)nc1N(CC)CC)c1ccccc1OC [Example 240, N-[4-(N,N-diethylamino)-2-methyl-6-methylthiopyrimidin-5-yl]-4-[N-hexyl-N-(2-methoxyphenyl)amino]butanamide]
IC50 [1]: 73 nM | lethal incident (acute toxicity) [4]: no lethal incident was observed

Compound: CCCCCCN(CCCC(=O)Nc1c(SC)nc(C)nc1N1CCOCC1)c1ccccc1 [Example 231, N-[2-methyl-4-methylthio-6-morpholinopyrimidin-5-yl]-4-(N-hexyl-N-phenylamino)butanamide]
lethal incident (acute toxicity) [4]: no lethal incident was observed

Compound: CCCCCCN(CCCC(=O)Nc1c(OC)nc(C)nc1N(CCC)CCC)c1ccccc1 [Example 167, N-[4-(N,N-dipropylamino)-6-methoxy-2-methylpyrimidin-5-yl]-4-(N-hexyl-N-phenylamino)butanamide]
IC50 [1]: 43 nM

Compound: CCN(CC)c1nc(C)nc(SC)c1NC(=O)CCCN(C)c1ccccc1 [Example 224, N-[4-(N,N-diethylamino)-2-methyl-6-methylthiopyrimidin-5-yl]-4-(N-methyl-N-phenylamino)butanamide]
IC50 [1]: 220 nM

Compound: CCCN(CCCC(=O)Nc1c(SC)nc(C)nc1N(CC)CC)Cc1ccccc1 [Example 242, 4-(N-benzyl-N-propylamino)-N-[4-(N,N-diethylamino)-2-methyl-6-methylthiopyrimidin-5-yl]butanamide]
IC50 [1]: 220 nM

Compound: CCCN(CCCCC(=O)Nc1c(S)nc(C)nc1N(CCC)c1ccccc1)c1ccccc1 [Example 185, N-[4-mercapto-2-methyl-6-(N-phenyl-N-propylamino)pyrimidin-5-yl]-5-(N-phenyl-N-propylamino)pentanamide]
IC50 [1]: 79 nM

Further molecules by falling IC50 [1], results first:

IC50 [1]: 280 nM
Compound: CCN(CC)c1nc(C)nc(S)c1NC(=O)CCCN1CCCc2ccccc21 [Example 183, N-[4-(N,N-diethylamino)-6-mercapto-2-methylpyrimidin-5-yl]-4-(tetrahydroquinolino)butanamide]

IC50 [1]: 190 nM
Compound: CCN(CC)c1nc(C)nc(SC)c1NC(=O)CCCN1CCCc2ccccc21 [Example 244, N-[4-(N,N-diethylamino)-2-methyl-6-methylthiopyrimidin-5-yl]-4-(N-tetrahydroquinolino)butanamide]

IC50 [1]: 140 nM
Compound: CCCN(CCCC(=O)Nc1c(S)ncnc1N(CCC)c1ccccc1)c1ccccc1 [Example 149, N-[4-mercapto-6-(N-phenyl-N-propylamino)pyrimidin-5-yl]-(N-phenyl-N-propylamino)butanamide]
inhibition in vivo at 30 mg/kg [3]: 21%

IC50 [1]: 130 nM | IC50 [2, 5]: 100 to 1000 nM
Compound: CCCN(CCCC(=O)Nc1c(SC)nc(C)nc1N(C)C)c1ccccc1 [Example 219, N-[4-(N,N-dimethylamino)-2-methyl-6-methylthiopyrimidin-5-yl]-4-(N-phenyl-N-propylamino)butanamide]

IC50 [1]: 120 nM
Compound: CCCN(CCC(=O)Nc1c(SC)nc(C)nc1N(CC)CC)c1ccccc1 [Example 216, N-[4-(N,N-diethylamino)-2-methyl-6-methylthiopyrimidin-5-yl]-3-(N-phenyl-N-propylamino)propionamide]
inhibition in vivo at 100 mg/kg ([3]; 100 mg/kg/day): 33%

IC50 [1]: 110 nM
Compound: CCCCCCN(CCCC(=O)Nc1c(SC)nc(C)nc1N(CCCC)CCCC)c1ccccc1 [Example 227, N-[4-(N,N-dibutylamino)-2-methyl-6-methylthiopyrimidin-5-yl]-4-(N-hexyl-N-phenylamino)butanamide]

IC50 [1]: 110 nM | IC50 [2, 5]: 100 to 1000 nM
Compound: CCCN(CCCC(=O)Nc1c(SC)nc(C)nc1N(CC)CC)c1ccc(OC)cc1 [Example 238, N-[4-(N,N-diethylamino)-2-methyl-6-methylthiopyrimidin-5-yl]-4-[N-(4-methoxyphenyl)-N-propylamino)butanamide]
inhibition in vivo at 10 mg/kg [3]: 65%

IC50 [1]: 64 nM
Compound: CCCN(CCCCC(=O)Nc1c(SC)nc(C)nc1N(CC)CC)c1ccccc1 [Example 245, N-[4-(N,N-diethylamino)-2-methyl-6-methylthiopyrimidin-5-yl]-5-(N-phenyl-N-propylamino)pentanamide]

IC50 [1]: 55 nM | IC50 [2, 5]: 10 to 100 nM
Compound: CCCCCCCN(Cc1ccccc1)c1nc(C)nc(S)c1NC(=O)CCCN(CCC)c1ccccc1 [Example 148, N-[4-(N-benzyl-N-heptylamino)-6-mercapto-2-methylpyrimidin-5-yl]-4-(N-phenyl-N propylamino)butanamide]

IC50 [1]: 52 nM | IC50 [2, 5]: 100 to 1000 nM
Compound: CCCN(CCCC(=O)Nc1c(SC)nc(C)nc1N(CC)CC)c1ccccc1 [Example 220, N-[4-(N,N-diethylamino)-2-methyl-6-methylthiopyrimidin-5-yl]-4-(N-phenyl-N-propylamino)butanamide]
inhibition in vivo at 30 mg/kg [3]: 23%

IC50 [1]: 38 nM
Compound: CCCCCCN(CCCC(=O)Nc1c(S)nc(C)nc1N(CCC)CCC)c1ccccc1 [Example 156, N-[4-(N,N-dipropylamino)-6-mercapto-2-methylpyrimidin-5-yl]-4-(N-hexyl-N-phenylamino)butanamide]

IC50 [1]: 37 nM
Compound: CCCCCCN(CCCC(=O)Nc1c(SC)nc(C)nc1N(CC)CC)c1ccc(Br)cc1 [Example 272, 4-[N-(4-bromophenyl)-N-hexylamino]-N-[4-(N,N-diethylamino)-2-methyl-6-methylthiopyrimidin-5yl]butanamide]

IC50 [1]: 16 nM
Compound: CCCCCCN(CCCC(=O)Nc1c(SC)nc(C)nc1N(CCC)CCC)c1ccccc1 [Example 226, N-[4-(N,N-dipropylamino)-2-methyl-6-methylthiopyrimidin-5-yl]-4-(N-hexyl-N-phenylamino)butanamide]
